The values below are quoted from earlier work in PMC7285658 (Chemical communications (Cambridge, England), 2020).

The structures appear in SMILES notation.

In the data set the target is RSK1/2. Conditions: selective inhibitor of RSK1/2.

Take `CC(=O)O[C@@H]1[C@@H](OC(C)=O)[C@@H](O)[C@H](Oc2c(-c3ccc(O)cc3)oc3cc(O)cc(O)c3c2=O)O[C@H]1C` [SL0101]: the Ki was about 1 µM.
